Reference: patent US7582282B2, “Methods for optimizing clinical responsiveness to methotrexate therapy using metabolite profiling and pharmacogenetics” (Prometheus Laboratories Inc., priority 2003, dated 2009)

How the values were obtained:
[1] = human, in vivo
Method: Red blood cell methotrexate polyglutamate concentrations were measured as described further below using HPLC-fluorometry with post-column photo-oxidation technique. The technologist in charge of quantification of red blood cell methotrexate polyglutamates was blinded to patients' clinical information.
Mobile phase B consisted of acetonitrile.
Red blood cell long-chain MTXPG concentrations were measured as described previously using an HPLC-fluorometry procedure with post-column photo-oxidation technique (Dervieux, Clin Chem. (2003)). The technologist performing the quantification of RBC MTXPGs (up to the penta-order of glutamation) was blinded to patient's information.
The quantification limit of the analytical method is 5 nmol/L and the detection limit is 2 nmol/L packed RBC (for all MTXPG species) (Dervieux, Clin Chem. (2003)).

[2] = tested on: patients with rheumatoid arthritis; test: Cross-sectional clinical study of methotrexate effects in patients with rheumatoid arthritis (joint counts, VAS, mHAQ; regression analyses); format: in vivo, human; design: key to Physician's assessment of disease activity visual analog score (VAS), mean / Physician assessment of disease activity VAS: 10 cm visual analog scale; key to Modified health assessment questionnaire (mHAQ) score, mean / Modified Health assessment questionnaire: mean of 8 items, each 0 = without any difficulty to 3 = unable to do
Method: In this cross-sectional study, eligibility was limited to patients of at least 18 years of age who met the revised criteria of the American Rheumatism Association for Rheumatoid Arthritis and had received low dose methotrexate therapy for at least three months. Some patients were on additional medications for rheumatoid arthritis, including low dose corticosteroids (<10 mg day), and folic acid supplementation (1 mg/day). The Institutional Review Board approved the study, and patient consent was obtained.
Patient characteristics were collected at the time of the enrollment in the clinical study. Clinical assessment included a tender joint count, a swollen joint count, a Physician's Assessment of Disease Activity (using a 10 cm visual analog scale (VAS)), and a Patient's Assessment of Physical Function using the modified-Health Assessment Questionnaire (m-HAQ). The mHAQ is the average score obtained on eight items addressed to the patient to assess loss of typical lifestyle activities. Scoring of items within each is from 0 (without any difficulty) to 3 (unable to do). The eight items are as follows: 1: dress yourself, 2: get in and out of bed, 3: lift a full glass to your mouth, 4: walk, 5: wash and dry entire body, 6: bend down and pick up clothing, 7: turn faucets on and off, and 8: get in and out of a car. In addition to these standards, the American College of Rheumatology measures, and a Physician's Assessment of Response to methotrexate scored on a 10 cm visual analogue scale (VAS) were also used. In this visual analogue scale, “0” is defined as a perfect response, while “10” is defined as no response. Based on these definitions, a physician's assessment of response to MTX below group median corresponds to a perception of response above group median. Clinical data were collected on case report forms at the time of the clinical visit, and the physician and each patient were blinded to all laboratory parameters throughout the entire study. Furthermore, using the VAS for the physician's assessment of disease activity and the physician's assessment of response to methotrexate, the highest 25th percentiles for disease activity or response to methotrexate were calculated. Chi-square analysis was applied, and odds ratios (OR) were calculated.
Genotyping was performed as follows: Whole blood (EDTA) was drawn the day of the clinical visit; genomic DNA was extracted using a Generation Purification Capture Column (Gentra Systems, Inc; Minneapolis, Minn.). The RFC-1 G80A polymorphism, which results in a […] substitution at codon 27 of RFC-1, was detected using the PCR RFLP method described in Chango et al., supra, 2000. The ATIC C347G polymorphism, which results in a threonine to serine substitution at position 116 of ATIC, was determined with a real time TaqMan allelic discrimination assay performed using fluorogenic 3′-minor groove binding probes. The forward primer sequence was 5′-[…]-3′ (SEQ ID NO:3), and the reverse primer sequence was 5′-[…]-3′ (SEQ ID NO:4). Allelic discrimination was performed using the wild-type fluorescent probe 5′-FAM-[…]-MGB 3′ (SEQ ID NO:5) and the mutant fluorescent probe 5′-VIC-[…]-MGB 3′ (SEQ ID NO:6). Final reaction conditions were as follows: 900 nM of each primer, 200 nM of each probe, 5 ng genomic DNA, and a 1×TaqMan master mix (Applied Biosystems; Foster City, Calif.). PCR reactions were incubated for one 2-minute cycle at 50° C., a 10-minute cycle at 95° C., and 40 cycles of 95° C. for 15 seconds, 58° C. for 15 seconds, and finally 60° C. for 45 seconds. Statistical analyses were performed using Statistica (StatSoft Inc., Tulsa, Okla.) essentially as follows. […]

[3] = Red blood cell MTXPG concentrations in 14 polyarthritis patients on low dose weekly methotrexate (HPLC-fluorometry)
Method: The liquid chromatograph was an Agilent 1100 HPLC chemstation system composed of a quaternary pump, a system controller, an autoinjector, a sample cooler kept at 4° C., and a fluorometer. […] Methotrexate polyglutamates were detected with post-column derivatization using a photochemical reactor unit (Aura Industries, New York, N.Y.) equipped with an elongated 254 nm low pressure mercury ultraviolet lamp and containing a 1/16″ outer diameter TEFLON™ tubing (internal diameter 0.25 mm) assembled as a knitted coil and connected on-line between the analytical column and fluorometer. […] Methotrexate polyglutamate photolytic products were measured at an excitation wavelength of 274 nm and an emission wavelength of 464 nm, unless otherwise indicated. The retention times described herein were measured from time of injection to time of detection at the post-reactor unit fluorometer.
HPLC separation was performed on a 25 cm×4.6 mm X Terra MS C18 column (Waters, Milford, Mass.), 5 μm particle size, protected by a guard column. […] Methotrexate polyglutamate photolytic products were analyzed at an excitation wavelength of 274 nm and an emission wavelength of 464 nm. […]
Results were expressed as nmol/L packed red blood cells, and patient results were expressed as an average plus or minus the standard error of the mean (±SEM). […]

[4] = multivariate regression with RFC-1, ATIC, TSER genotypes, adjusted for corticosteroids and folic acid
[5] = 108 patients on methotrexate, mean ± SEM
[6] = 108 patients on methotrexate, median (range)
[7] = multivariate linear regression adjusted for corticosteroids and folic acid

**Q.** Which results are given for CN(Cc1cnc2nc(N)nc(N)c2n1)c1ccc(C(=O)N[C@@H](CCC(=O)N[C@@H](CCC(=O)N[C@@H](CCC(=O)O)C(=O)O)C(=O)O)C(=O)O)cc1 [MTXPG3, 4-amino-10-methylpteroyltri-glutamic acid]?
**A.** Median RBC long-chain MTXPGs concentration (MTXPG3) [1]: 40 nmol/L; RBC long-chain MTXPGs concentration (MTXPG3), range [1]: <5 to 131 nmol/L; Logistic regression estimate for MTXPG3: probability of total number of tender and swollen joints below group median ([2]; FIG. 4A, model with MTXPG3 only, estimate ± standard error): 0.022±0.008; Logistic regression estimate for MTXPG3: probability of physician assessment of Disease activity VAS below group median ([2]; FIG. 4B, model with MTXPG3 only): 0.024±0.009; Logistic regression estimate for MTXPG3: probability of physician assessment of response to methotrexate VAS below group median ([2]; FIG. 4C, model with MTXPG3 only): 0.034±0.01; Logistic regression estimate for MTXPG3: probability of mHAQ below group median ([2]; FIG. 4D, model with MTXPG3 only): 0.014±0.008; Logistic regression estimate for MTXPG3: probability of total number of tender and swollen joints below group median ([2]; FIG. 5A, model with MTXPG3 and RFC-1 G80A genotype): 0.022±0.009; Logistic regression estimate for MTXPG3: probability of physician assessment of Disease activity VAS below group median ([2]; FIG. 5B, model with MTXPG3 and RFC-1 G80A genotype): 0.024±0.009; Logistic regression estimate for MTXPG3: probability of physician assessment of response to methotrexate VAS below group median ([2]; FIG. 5C, model with MTXPG3 and RFC-1 G80A genotype): 0.033±0.010; Logistic regression estimate for MTXPG3: probability of mHAQ below group median ([2]; FIG. 5D, model with MTXPG3 and RFC-1 G80A genotype): 0.015±0.008; Logistic regression estimate for MTXPG3: probability of total number of tender and swollen joints below group median ([2]; FIG. 6A, model with MTXPG3 and ATIC C347G genotype): 0.024±0.009; Logistic regression estimate for MTXPG3: probability of physician assessment of Disease activity VAS below group median ([2]; FIG. 6B, model with MTXPG3 and ATIC C347G genotype): 0.025±0.009; Logistic regression estimate for MTXPG3: probability of physician assessment of response to methotrexate VAS below group median ([2]; FIG. 6C, model with MTXPG3 and ATIC C347G genotype): 0.038±0.010; Logistic regression estimate for MTXPG3: probability of mHAQ below group median ([2]; FIG. 6D, model with MTXPG3 and ATIC C347G genotype): 0.013±0.008; Logistic regression estimate for MTXPG3: probability of total number of tender and swollen joints below group median ([2]; FIG. 7A, model with MTXPG3 and PGENi (RFC-1, ATIC)): 0.023±0.009; Logistic regression estimate for MTXPG3: probability of physician assessment of Disease activity VAS below group median ([2]; FIG. 7B, model with MTXPG3 and PGENi (RFC-1, ATIC)): 0.025±0.009; Logistic regression estimate for MTXPG3: probability of physician assessment of response to methotrexate VAS below group median ([2]; FIG. 7C, model with MTXPG3 and PGENi (RFC-1, ATIC)): 0.036±0.010; Logistic regression estimate for MTXPG3: probability of mHAQ below group median ([2]; FIG. 7D, model with MTXPG3 and PGENi (RFC-1, ATIC)): 0.014±0.009; MTXPG3 estimate, logistic regression: probability of physician's assessment of patient's response to MTX VAS≦2 cm ([2]; FIG. 12B): 0.035±0.01; Estimate ± SEM of RBC MTXPG3 (nmol/L) for Modified Health assessment questionnaire [2, 4]: −0.002 ± 0.002; Estimate ± SEM of RBC MTXPG3 (nmol/L) for Number of Swollen joints [2, 4]: −0.035 ± 0.019; Estimate ± SEM of RBC MTXPG3 (nmol/L) for Number of Tender joints [2, 4]: −0.047 ± 0.23; Estimate ± SEM of RBC MTXPG3 (nmol/L) for Patient's Global assessment of disease activity VAS [2, 4]: −0.004 ± 0.009; Estimate ± SEM of RBC MTXPG3 (nmol/L) for Physician's Global assessment of disease activity VAS [2, 4]: −0.025 ± 0.008; Estimate ± SEM of RBC MTXPG3 (nmol/L) for Physician's assessment of Patient's response to MTX VAS [2, 4]: −0.026 ± 0.007; Fold more likely to have clinical responsiveness to the chemotherapy above average ([2]; patients with RBC MTXPG3 levels above 60 nmol/L): 12.7 fold; Average share of total methotrexate polyglutamates ([3]; 14 patients, RBC): 55%

**Q.** What does the source list for CN(Cc1cnc2nc(N)nc(N)c2n1)c1ccc(C(=O)N[C@@H](CCC(=O)O)C(=O)O)cc1 [Methotrexate, 4-amino-10-methylpteroylglutamic acid]?
**A.** Modified Health assessment questionnaire [2, 5]: 0.55 ± 0.05; Number of Swollen joints (maximum 22) [2, 5]: 4.0 ± 0.5; Number of Tender joints (maximum 22) [2, 5]: 5.0 ± 0.6; Patient assessment of disease activity VAS [2, 5]: 4.1 ± 0.2; Physician assessment of disease activity VAS [2, 5]: 3.5 ± 0.2; Modified Health Assessment Questionnaire (mHAQ score) [2, 6]: 0.375 (0-2); Number of swollen and tender joints (total number) [2, 6]: 5.5 (0-44); Physician assessment of disease activity (10 cm VAS score) [2, 6]: 2.9 (0.1-8.4); Physician assessment of response to Methotrexate VAS ([2]; 108 patients, mean ± SEM): 2.7 ± 0.2; Physician assessment of response to methotrexate (10 cm VAS score) ([2]; 108 patients, median (range), 0 perfect response, 10 no response): 2.1 (0.1-8.3); Mean number of swollen joints ([2]; PGENi=0 (n=58 patients)): 5.5±0.8; Modified health assessment questionnaire (mHAQ) score, mean ([2]; PGENi=0 (n=58 patients)): 0.68±0.07; Physician's assessment of disease activity visual analog score (VAS), mean ([2]; PGENi=0 (n=58 patients)): 4.1±0.3; Physician's assessment of response to MTX, mean ([2]; PGENi=0 (n=58 patients)): 3.0±0.2; Mean number of tender joints ([2]; PGENi=0 (n=58 patients), PGENi from RFC-1, ATIC, TS homozygosity): 6.4±0.9; Mean number of swollen joints ([2]; PGENi=1 to 3 (n=50 patients)): 2.3±0.4; Mean number of tender joints ([2]; PGENi=1 to 3 (n=50 patients)): 3.3±0.9; Modified health assessment questionnaire (mHAQ) score, mean ([2]; PGENi=1 to 3 (n=50 patients)): 0.39±0.06; Physician's assessment of disease activity visual analog score (VAS), mean ([2]; PGENi=1 to 3 (n=50 patients)): 2.6±0.3; Physician's assessment of response to MTX, mean ([2]; PGENi=1 to 3 (n=50 patients)): 2.3±0.3; Estimate ± SEM of methotrexate dose (mg/week) for Modified Health assessment questionnaire [2, 7]: −0.017 ± 0.009; p = 0.09; Estimate ± SEM of methotrexate dose (mg/week) for Number of Tender joints [2, 7]: −0.17 ± 0.12; p = 0.15; Estimate ± SEM of methotrexate dose (mg/week) for Physician assessment of disease activity VAS [2, 7]: −0.088 ± 0.044; p = 0.06; Fold more likely to have a good response to methotrexate therapy ([2]; patients with a PGENi between 1-3 (sum of homozygous variant genotypes)): 3.7 fold; Fold more likely to have Physician's Assessment of Patient's Response to Methotrexate VAS≦2 cm (good response) ([2]; pharmacogenetic index above 2 (index 0 to 5, variant alleles counted)): 4.7 fold; RBC concentration in a patient sample ([3]; one patient on 17.5 mg weekly methotrexate for at least 3 months): 27 nmol/L
